Measurements taken from patent US9351955B2, “Compounds and pharmaceutical compositions thereof for the treatment of cystic fibrosis” (Galapagos NV, priority 2013, dated 2016).
Where “and” joins values, the source holds several entries; their conditions need not be identical. Equal entries are not always repeated.

Key:
CYP3A4 = target: T1, CYP3A4 (Homo sapiens, UniProt P08684); assay: Time dependent inhibition (TDI) of CYP3A4 in human liver microsomes; assay type: in vitro ADME
T1 construct: tissue BD Gentest; host or cells: human liver microsomes
T1 sequence (P08684 whole entry): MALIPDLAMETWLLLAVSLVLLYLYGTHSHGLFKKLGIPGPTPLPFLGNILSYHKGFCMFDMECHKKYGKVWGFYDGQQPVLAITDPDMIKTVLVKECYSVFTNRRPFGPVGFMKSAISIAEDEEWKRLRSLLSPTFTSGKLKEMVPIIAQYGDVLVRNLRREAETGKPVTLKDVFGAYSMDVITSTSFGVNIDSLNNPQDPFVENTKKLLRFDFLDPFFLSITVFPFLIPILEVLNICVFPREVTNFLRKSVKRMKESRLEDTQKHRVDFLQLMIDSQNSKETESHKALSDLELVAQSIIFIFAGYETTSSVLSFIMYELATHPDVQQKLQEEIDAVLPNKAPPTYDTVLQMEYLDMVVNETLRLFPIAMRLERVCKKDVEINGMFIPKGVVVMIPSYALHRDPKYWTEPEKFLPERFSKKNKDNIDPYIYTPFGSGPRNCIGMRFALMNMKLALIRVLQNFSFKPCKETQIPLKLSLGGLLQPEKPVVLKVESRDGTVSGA
Procedure: 8.7.11. Time Dependent Inhibition (TDI) 8.7.11.1. Protocol
The mechanism-based inhibition assay for CYP3A4 is carried out to evaluate the presence of any TDI.
A 5 mM stock solution of test compound is prepared in methanol. This stock is serially diluted 1:3 in methanol and then added in duplicates to mixture containing 50 mM potassium phosphate buffer pH 7.4 and human liver microsomes (BD Gentest). Final reaction conditions are as follows: seven test compound concentrations (0.14-100 μM), prepared in duplicates and 2% methanol.
A summary of the specific conditions is shown below.
After finishing the pre-incubation, the reaction is finally started by adding the co-factor mix to the first replica and probe substrate to second replica (opposite from pre-incubation).
After incubation at 37° C., the reaction (aliquot of 50 μL) is terminated with 150 μL acetonitrile:methanol (2:1) solution with internal standard (warfarin). Samples are centrifuged and the supernatant fractions analyzed by LC-MS/MS.
The instrument responses (ratio of test compound and internal standard peak areas) are referenced to those for solvent controls (assumed as 100%) in order to determine the percentage reduction in probe metabolism. […]

CFTR-S549N = target: T2, CFTR-S549N (Homo sapiens, UniProt P13569, S549N); assay: YFP-halide influx assay for the CFTR-S549N; assay type: cell-based; details: CFTR-S549N mutant; read-out: EC50 measured by YFP-halide influx assay for the CFTR-S549N
T2 construct: expressed in transfected cells
T2 sequence (P13569 whole entry S549N): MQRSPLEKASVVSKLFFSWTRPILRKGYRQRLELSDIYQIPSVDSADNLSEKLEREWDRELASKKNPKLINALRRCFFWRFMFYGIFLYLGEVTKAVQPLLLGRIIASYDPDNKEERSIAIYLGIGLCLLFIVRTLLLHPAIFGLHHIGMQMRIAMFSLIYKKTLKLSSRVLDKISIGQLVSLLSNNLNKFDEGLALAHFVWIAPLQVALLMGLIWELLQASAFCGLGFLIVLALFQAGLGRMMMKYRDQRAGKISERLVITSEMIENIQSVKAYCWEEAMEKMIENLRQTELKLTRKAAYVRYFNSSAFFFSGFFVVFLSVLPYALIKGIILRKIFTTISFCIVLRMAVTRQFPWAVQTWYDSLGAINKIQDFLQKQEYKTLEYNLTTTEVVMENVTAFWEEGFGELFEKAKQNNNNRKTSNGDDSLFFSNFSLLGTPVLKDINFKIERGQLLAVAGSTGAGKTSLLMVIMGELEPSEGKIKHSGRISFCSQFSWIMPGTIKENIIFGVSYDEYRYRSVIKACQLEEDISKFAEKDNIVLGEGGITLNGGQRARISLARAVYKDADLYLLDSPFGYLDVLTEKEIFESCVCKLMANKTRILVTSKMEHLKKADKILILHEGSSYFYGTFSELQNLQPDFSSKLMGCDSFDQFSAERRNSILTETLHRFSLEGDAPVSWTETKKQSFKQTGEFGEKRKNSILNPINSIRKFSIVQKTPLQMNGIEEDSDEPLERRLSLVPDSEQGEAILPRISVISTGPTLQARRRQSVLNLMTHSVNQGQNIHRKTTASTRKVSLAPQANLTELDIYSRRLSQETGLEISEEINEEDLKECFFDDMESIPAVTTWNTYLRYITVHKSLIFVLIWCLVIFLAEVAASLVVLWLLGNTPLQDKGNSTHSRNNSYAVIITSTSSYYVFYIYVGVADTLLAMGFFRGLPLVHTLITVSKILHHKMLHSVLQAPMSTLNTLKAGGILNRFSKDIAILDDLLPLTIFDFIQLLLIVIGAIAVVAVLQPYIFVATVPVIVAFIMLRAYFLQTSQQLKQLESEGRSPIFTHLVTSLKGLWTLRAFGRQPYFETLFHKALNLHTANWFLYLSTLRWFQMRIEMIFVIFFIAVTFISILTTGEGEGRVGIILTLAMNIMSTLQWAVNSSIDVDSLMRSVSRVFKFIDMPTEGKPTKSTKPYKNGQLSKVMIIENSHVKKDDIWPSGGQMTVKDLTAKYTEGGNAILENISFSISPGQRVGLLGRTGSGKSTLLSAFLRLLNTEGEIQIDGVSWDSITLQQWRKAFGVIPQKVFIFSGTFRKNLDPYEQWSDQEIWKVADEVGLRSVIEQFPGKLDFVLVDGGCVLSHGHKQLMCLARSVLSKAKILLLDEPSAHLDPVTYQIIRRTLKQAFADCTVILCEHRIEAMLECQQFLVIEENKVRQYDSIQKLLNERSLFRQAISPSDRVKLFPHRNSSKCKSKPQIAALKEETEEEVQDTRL
In short: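 HEK293 cells reverse-transfected with mutant CFTR and halide-sensitive YFP H148Q/I152L/F47L reporter, then expressed 24 h at 37 °C, 5% CO2. Fluorescence quenching recorded for 7 s after I^− injection; response expressed as 1−F/F0, with EC50 derived from response versus compound concentration.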

CFTR G551D = CFTR G551D (Homo sapiens, UniProt P13569, G551D); assay: TECC assay, FRT cells stably transfected with G551D CFTR; assay type: cell-based; details: high expression CFTR-G551D cells, several values in a cell = repeat determinations
Sequence of CFTR G551D (P13569 whole entry G551D): as the sequence (P13569 whole entry S549N) above, with N549S, G551D counted along it
Procedure: 7.2.3. FRT-CFTR G551D Protocol
For G551D recordings, Fish Rat Thyroid (FRT) cells stably transfected with G551D CFTR (a low CFTR-G551D expressing cell line and a high expressing CFTR-G551D cell line from Rosalind Franklin University of medicine and science, Chicago, Ill.) are plated on Transwell supports (Costar 6.5 mm Diameter, […]). The cells are grown for 8-10 d under liquid-liquid interface conditions prior to electrophysiological readings. For electrophysiological recording, the FRT-G551D cells are mounted in the TECC heating plate for electrophysiological measurement and kept at 37° C. The epithelia are bathed in hepes buffered culturing medium without FBS on both the basolateral and apical sides. Apical amiloride is used to inhibit the endogenous ENaC currents while forkolin is applied on both apical and basolateral side to stimulate CFTR. After forskolin triggering, compounds are added on both sides to test their potential for increasing CFTR gating. Measurements are done during a 10 minute timeframe with recordings every 2 min. The increase in ISC is used as a measure for the increased CFTR activity, EC50 values can be generated by measuring impact of different concentrations of compound on ISC on the cells, for this purpose each transwell is treated with a different compound concentration. Inh-172, an inhibitor specific for CFTR, is used to test the specificity of the tested compounds.
When subjected to this protocol, the following EC50 are measured.

Lung distribution study = assay type: in vivo, Sprague-Dawley rats; details: male, Sprague-Dawley, rat, plasma, oral, 10 mg/kg, exposure values
Procedure: Sprague-Dawley rats (male, 5-6 weeks old) are obtained from Janvier (France). Rats are acclimatized for at least 5 days before treatment and are kept on a 12 h light/dark cycle. Temperature is maintained at approximately 22° C., and food and water are provided ad libitum. Two days before administration of the test compounds, rats may undergo surgery to place a catheter in the jugular vein under isoflurane anesthesia. After the surgery, rats are housed individually. Rats are deprived of food for at least 16 h before oral dosing and 6 h after. Water is provided ad libitum.
8.7.3. Lung Distribution Studies
Compounds are formulated in 0.5% methylcellulose and EtOH/PEG 200/Methylcellulose 0.5% (10/25/65 v/v/v) by the oral route. Test compounds are orally dosed as a single esophageal gavage at 10 mg/kg under a dosing volume of 5 mL/kg. Each group consists of 12 rats. At each time point, typically 1, 3, 6 and 24 h, animals are euthanized and blood and lung samples are collected. Whole blood samples are centrifuged at 1500 g for 10 min and the resulting plasma samples, along with the lung samples, are stored at −20° C. pending analysis.
8.7.4. Quantification of Compound Levels in Plasma and Lung Samples
Lung samples are milled in the presence of ceramic beads and proteins present in plasma and lung samples are precipitated with an organic solvent. Concentrations of each test compound are determined by an LC-MS/MS method in which the mass spectrometer is operated in positive or negative electrospray mode.
For each animal, the lung-to-plasma ratio is determined as the ratio between compound concentration in lung and in plasma. At each sampling time point, mean, standard error of the mean (sem) and coefficient of variation (CV %) are calculated using data from three animals.

SMILES | time-dependent inhibition of CYP3A4 (CYP3A4; IC50 without vs with preincubation) | IC50 (CYP3A4; both without and with preincubation, Midazolam or testosterone as probe substrate, human liver microsomes) [nM] | EC50 (CFTR-S549N) [nM] | EC50 (CFTR G551D) | AUC(0-t) (Lung distribution study) [ng·h/mL]
CC1(C)Cc2c(sc(NC(=O)c3ccn[nH]3)c2C(N)=O)C(C)(C)O1 [Compound 2, N-(3-carbamoyl-5,5,7,7-tetramethyl-5,7-dihydro-4H-thieno[2,3-c]pyran-2-yl)-1H-pyrazole-5-carboxamide] | no evidence for time-dependent inhibition of CYP3A4 | > 100000 | 211 | 66.2 nM and 90.2 nM and 85 nM and 61.5 nM and 57.8 nM and 87.4 nM | –
CC1(C)Cc2c(sc(NC(=O)C3(CO)CC3)c2C(N)=O)C(C)(C)O1 [Compound 9, 2-(1-(hydroxymethyl)cyclopropanecarboxamido)-5,5,7,7-tetramethyl-5,7-dihydro-4H-thieno[2,3-c]pyran-3-carboxamide] | – | – | 902 | 361 nM and 527 nM and 695 nM and 400 nM and 511 nM | 38900
